Results reported in patent publication US20090203707A1, “METHODS FOR TREATING PAIN” (priority 2008, published 2009).

Target: SCN9A (Nav1.7) Na+ channel, α- and β1 subunits, in HEK293 cells (Homo sapiens, UniProt Q15858)
Experiment: Whole-cell patch clamp, Nav1.7 peak INa in HEK293 cells (Example 1)
Settings: 0.1 Hz; for Mean amplitude of Nav1.7 peak INa, fraction of control: −100 mV to 0 mV, 50 msec; for p of logistic fit (Hill coefficient nH) for block of Nav1.7 peak INa / x0 of logistic fit (IC50) for block of Nav1.7 peak INa: holding −100 mV to 0 mV

Chain of SCN9A (Nav1.7) Na+ channel, α- and β1 subunits, in HEK293 cells (Q15858 whole entry): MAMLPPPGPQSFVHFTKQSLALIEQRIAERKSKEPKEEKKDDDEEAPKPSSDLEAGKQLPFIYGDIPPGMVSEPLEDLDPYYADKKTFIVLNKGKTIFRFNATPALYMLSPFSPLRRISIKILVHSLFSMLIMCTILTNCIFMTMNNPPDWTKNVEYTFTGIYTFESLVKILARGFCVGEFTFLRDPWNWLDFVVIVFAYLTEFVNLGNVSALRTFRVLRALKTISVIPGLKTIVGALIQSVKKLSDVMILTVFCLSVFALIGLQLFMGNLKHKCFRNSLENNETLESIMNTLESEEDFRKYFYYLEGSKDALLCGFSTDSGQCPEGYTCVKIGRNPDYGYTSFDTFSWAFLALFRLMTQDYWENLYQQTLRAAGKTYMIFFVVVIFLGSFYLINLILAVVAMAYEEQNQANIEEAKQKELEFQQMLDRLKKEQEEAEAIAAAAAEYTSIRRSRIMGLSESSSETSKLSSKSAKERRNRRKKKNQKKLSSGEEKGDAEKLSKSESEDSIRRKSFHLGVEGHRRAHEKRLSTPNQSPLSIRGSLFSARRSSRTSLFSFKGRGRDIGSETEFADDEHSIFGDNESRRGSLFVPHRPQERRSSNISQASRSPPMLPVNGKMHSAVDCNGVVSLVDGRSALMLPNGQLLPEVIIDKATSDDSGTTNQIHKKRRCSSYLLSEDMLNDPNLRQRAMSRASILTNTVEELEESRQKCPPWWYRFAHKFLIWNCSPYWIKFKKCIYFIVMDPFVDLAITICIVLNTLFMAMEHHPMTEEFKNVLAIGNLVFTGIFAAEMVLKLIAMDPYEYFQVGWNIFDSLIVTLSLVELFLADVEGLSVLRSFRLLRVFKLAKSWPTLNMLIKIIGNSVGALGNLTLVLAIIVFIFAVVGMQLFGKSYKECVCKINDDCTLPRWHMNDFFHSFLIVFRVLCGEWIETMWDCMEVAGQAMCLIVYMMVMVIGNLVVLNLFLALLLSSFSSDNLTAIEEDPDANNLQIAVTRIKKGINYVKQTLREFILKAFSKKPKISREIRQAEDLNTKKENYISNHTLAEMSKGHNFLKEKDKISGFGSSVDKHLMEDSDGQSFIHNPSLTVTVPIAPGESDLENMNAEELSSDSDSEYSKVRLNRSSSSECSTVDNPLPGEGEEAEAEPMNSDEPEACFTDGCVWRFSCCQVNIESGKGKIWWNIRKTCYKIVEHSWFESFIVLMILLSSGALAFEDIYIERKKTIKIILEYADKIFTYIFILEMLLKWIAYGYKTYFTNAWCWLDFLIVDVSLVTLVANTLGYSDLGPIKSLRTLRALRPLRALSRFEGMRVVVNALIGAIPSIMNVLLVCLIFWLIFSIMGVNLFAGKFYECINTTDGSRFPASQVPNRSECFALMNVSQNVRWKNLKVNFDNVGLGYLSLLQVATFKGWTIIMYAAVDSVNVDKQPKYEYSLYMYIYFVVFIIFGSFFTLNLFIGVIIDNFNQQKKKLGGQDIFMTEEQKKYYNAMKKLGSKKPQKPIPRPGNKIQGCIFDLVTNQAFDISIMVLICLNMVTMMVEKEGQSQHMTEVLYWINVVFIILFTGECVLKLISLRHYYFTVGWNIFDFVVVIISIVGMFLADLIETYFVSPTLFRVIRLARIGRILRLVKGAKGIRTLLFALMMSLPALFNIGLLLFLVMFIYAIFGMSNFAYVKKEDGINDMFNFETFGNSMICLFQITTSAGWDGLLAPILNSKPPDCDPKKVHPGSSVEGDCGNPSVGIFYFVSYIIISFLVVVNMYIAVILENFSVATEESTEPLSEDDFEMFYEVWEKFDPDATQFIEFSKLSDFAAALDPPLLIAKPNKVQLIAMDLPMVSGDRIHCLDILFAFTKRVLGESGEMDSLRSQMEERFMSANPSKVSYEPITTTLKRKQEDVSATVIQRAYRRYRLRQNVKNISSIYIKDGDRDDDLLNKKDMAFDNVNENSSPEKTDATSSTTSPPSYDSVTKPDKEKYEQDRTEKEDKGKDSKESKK
Chain of SCN9A (Nav1.7) Na+ channel, α- and β1 subunits, in HEK293 cells (Q07699 19-218 partner): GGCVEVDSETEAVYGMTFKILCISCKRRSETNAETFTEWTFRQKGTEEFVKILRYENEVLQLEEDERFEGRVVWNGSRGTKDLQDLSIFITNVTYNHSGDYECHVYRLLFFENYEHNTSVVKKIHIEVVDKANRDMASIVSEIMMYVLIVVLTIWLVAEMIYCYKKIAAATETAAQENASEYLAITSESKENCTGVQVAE

Mean amplitude of Nav1.7 peak INa, fraction of control (1 μM) | Mean amplitude of Nav1.7 peak INa, fraction of control (3 μM) | Mean amplitude of Nav1.7 peak INa, fraction of control (10 μM) | Mean amplitude of Nav1.7 peak INa, fraction of control (30 μM) | Mean amplitude of Nav1.7 peak INa, fraction of control (100 μM) | p of logistic fit (Hill coefficient nH) for block of Nav1.7 peak INa | x0 of logistic fit (IC50) for block of Nav1.7 peak INa [μM] | SMILES
0.9252 | 0.8286 | 0.6336 | 0.2387 | 0.07855 | 1.212 | 11.33 | COc1ccccc1OC[C@H](O)CN1CCN(CC(=O)Nc2c(C)cccc2C)CC1 [R-Ranolazine, (R)-(+)-N-(2,6-dimethylphenyl)-4-[2-hydroxy-3-(2-methoxyphenoxy)-propyl]-1-piperazineacetamide]
0.8788 | 0.7285 | 0.5358 | 0.2883 | 0.06853 | 0.9409 | 9.433 | COc1ccccc1OC[C@@H](O)CN1CCN(CC(=O)Nc2c(C)cccc2C)CC1 [S-Ranolazine, (S)-(−)-N-(2,6-dimethylphenyl)-4-[2-hydroxy-3-(2-methoxyphenoxy)-propyl]-1-piperazineacetamide]
